Assay results reported in patent US12344600B2, “c-Myc mRNA translation modulators and uses thereof in the treatment of cancer” (Anima Biotech Inc., priority 2022, dated 2025).

test system: c-Myc; experiment: c-Myc immunofluorescence assay; assay type: cell-based, human; details: A549 cells, 24 hours, anti-c-Myc immunofluorescence
Experimental: A549 human non-small cell lung carcinoma cells were treated for 24 hours with increasing compound concentration, cells were fixed and stained with a nuclei stain (DAPI) and anti-c-Myc fluorescent antibody. The c-Myc signal was quantified by image analysis, and data was exported and analyzed using TIBCO Spotfire® (TIBCO Corporation). Dose response curves were generated and fitted with logaristic regression to calculate potency (EC50 values). Potency values are presented in Table 2 for all compounds and are shown for selected compounds (FIG. 3).
A549 cells were grown in 384-wells plates (Perkin Elmer, Cat. 6057300) for 48 hours, treated with compounds and then fixed for 20 min in 4% paraformaldehyde. After that permeabilization was done using 0.1% Triton X-100 in PBS for 20 min. Primary anti-c-Myc antibody (Abcam, ab32072) staining was performed for 90 min at room temperature. Cells then were washed twice with PBS and incubated with secondary antibody (Abcam, ab150075) for 90 min at room temperature. Nuclei were stained with DAPI for 10 min and washed twice with PBS.
Cell images were taken with Operetta (Perkin Elmer, USA), a wide-field fluorescence microscope at 20× magnification. After acquisition, the images were transferred to Columbus software (Perkin-Elmer) for image analysis. In Columbus, cells were identified by their nucleus, using the “Find Nuceli” module and cytoplasm was detected based on the secondary antibody channel. Subsequently, the fluorescent signal was enumerated in the identified cell region. Then data was exported to a data analysis and visualization software, Tibco Spotfire, USA.

| SMILES | Myc Efficacy (−LogEC50) |
| --- | --- |
| COc1ccc(-c2noc(CCC(=O)NC[C@H]3CCN(Cc4ccc(C)cc4)C3)n2)cc1 [Compound 149, (R)-3-(3-(4-methoxyphenyl)-1,2,4-oxadiazol-5-yl)-N-((1-(4-methylbenzyl)pyrrolidin-3-yl)methyl)propanamide] | ++ (++ ≥5 and <6) |
| COc1ccc(-c2noc(N3CCC(C(=O)NCc4nc5ccccc5[nH]4)CC3)n2)cc1 [Compound 419, N-((1H-benzo[d]imidazol-2-yl)methyl)-1-(3-(4-methoxyphenyl)-1,2,4-oxadiazol-5-yl)piperidine-4-carboxamide] | ++ (++ ≥5 and <6) |
| COc1ccc(-c2noc(N3CCC(C(=O)NCc4ccccc4N4CCCC4)CC3)n2)cc1 [Compound 257, 1-(3-(4-methoxyphenyl)-1,2,4-oxadiazol-5-yl)-N-(2-(pyrrolidin-1-yl)benzyl)piperidine-4-carboxamide] | + (+ >3 and <5) |
| COc1ccc(-c2noc(N3CCC(C(=O)NCC4CCN(CC5CCCC5)C4)CC3)n2)cc1 (stereo not shown) [Compound 323, N-((1-(cyclopentylmethyl)pyrrolidin-3-yl)methyl)-1-(3-(4-methoxyphenyl)-1,2,4-oxadiazol-5-yl)piperidine-4-carboxamide] | ++ (++ ≥5 and <6) |
| CC(=O)Nc1ccc(-c2noc(N3CCC(C(=O)NCC4CCN(Cc5ccc(C)cc5)C4)CC3)n2)cc1 (stereo not shown) [Compound 184, 1-(3-(4-acetamidophenyl)-1,2,4-oxadiazol-5-yl)-N-((1-(4-methylbenzyl)pyrrolidin-3-yl)methyl)piperidine-4-carboxamide] | + (+ >3 and <5) |
| COc1ccc(-c2noc(N3CCC(C(=O)NC[C@H]4CC(C)(C)O4)CC3)n2)cc1 [Compound 272, (R)-N-((4,4-dimethyloxetan-2-yl)methyl)-1-(3-(4-methoxyphenyl)-1,2,4-oxadiazol-5-yl)piperidine-4-carboxamide] | + (+ >3 and <5) |
| COc1ccc(-c2noc(N3CCC(C(=O)N[C@@H](CO)c4ccccc4)CC3)n2)cc1 [Compound 265, (R)-N-(2-hydroxy-1-phenylethyl)-1-(3-(4-methoxyphenyl)-1,2,4-oxadiazol-5-yl)piperidine-4-carboxamide] | + (+ >3 and <5) |
| Cc1ccc(CN2CCC(CNC(=O)C3CCN(c4nc(-c5ccc(Cl)cc5)no4)CC3)C2)cc1 (stereo not shown) [Compound 154, 1-(3-(4-chlorophenyl)-1,2,4-oxadiazol-5-yl)-N-((1-(4-methylbenzyl)pyrrolidin-3-yl)methyl)piperidine-4-carboxamide] | ++ (++ ≥5 and <6) |
| COc1ccc(-c2noc(N3CCC(C(=O)N4CCN(c5ccccc5)CC4)CC3)n2)cc1 [Compound 205, (1-(3-(4-methoxyphenyl)-1,2,4-oxadiazol-5-yl)piperidin-4-yl)(4-phenylpiperazin-1-yl)methanone] | + (+ >3 and <5) |
| COc1ccc(-c2noc(N3CCC(C(=O)NCC4CCN(Cc5cc[nH]c5)C4)CC3)n2)cc1 (stereo not shown) [Compound 325, N-((1-((1H-pyrrol-3-yl)methyl)pyrrolidin-3-yl)methyl)-1-(3-(4-methoxyphenyl)-1,2,4-oxadiazol-5-yl)piperidine-4-carboxamide] | + (+ >3 and <5) |
| COc1ccc(-c2noc(N3CCC(C(=O)NCCN(C)C)CC3)n2)cc1 [Compound 111, N-(2-(dimethylamino)ethyl)-1-(3-(4-methoxyphenyl)-1,2,4-oxadiazol-5-yl)piperidine-4-carboxamide] | + (+ >3 and <5) |
| COc1ccc(-c2noc(CCC(=O)NC[C@@H]3CCN(Cc4ccc(C)cc4)C3)n2)cc1 [Compound 150, (S)-3-(3-(4-methoxyphenyl)-1,2,4-oxadiazol-5-yl)-N-((1-(4-methylbenzyl)pyrrolidin-3-yl)methyl)propanamide] | ++ (++ ≥5 and <6) |
| COc1ccc(-c2noc(N3CCC(C(=O)NCc4cc5ccccc5[nH]4)CC3)n2)cc1 [Compound 285, N-((1H-indol-2-yl)methyl)-1-(3-(4-methoxyphenyl)-1,2,4-oxadiazol-5-yl)piperidine-4-carboxamide] | ++ (++ ≥5 and <6) |
